Test results from US8349310B2, “Attractant compositions and method for attracting biting insects” (Bedoukian Research, Inc., priority 2007, dated 2013).

What was measured:
Culex quinquefasciatus = conditions: electrophysiology test, reported in a published article; cited from earlier work
mosquitoes [1] = test: Field trap catch, Hock Model 1012 traps: CO2 plus 1,5Z-octadien-3-ol vs CO2 alone (Example 1); format: in vivo
Text: (§1) Although, as stated above, this invention may be employed with any suitable trap or system, the invention has been tested and employed in a trap or system as described hereinafter. Mosquito traps Model 1012 manufactured by John W. Hock Company in Gainesville, Fla. were used in these tests. The traps use a stream of CO2 directed in the vicinity of a collection bag, with a fan used to blow mosquitoes into the bag. The light supplied to the trap was turned off. The traps were spaced 65-70 feet apart at the edge of a wetland in Danbury, Conn., at least 25 feet from any buildings. The 1,5-octadien-3-ol component was incorporated into a wax lure of the type manufactured by BioSensory, Inc. and placed near a stream of CO2 which was being released at a rate of approximately 150 ml/minute. The traps were operated from approximately 4:00 PM until 9:00 AM the next day. Daytime temperatures were approximately 70-75° F. during the trials.
To establish a baseline control the Hock traps with just CO2, and no added 1,5-octadien-3-ol component, were operated in the two areas on three days. The trap in area 1 (Trap A) caught 32 of the mosquitoes caught, and the trap in area 2 (Trap B) caught 23 of the mosquitoes caught. […]

mosquitoes [2] = test: Field trap catch, Hock traps: r-1-octen-3-ol with or without r-1,5Z-octadien-3-ol (Example 2); format: in vivo; conditions: for mosquitoes caught: Traps A and B, twelve day test period, attractant in 2 ml diethyl phthalate, 0.04 g r-1,5Z-octadien-3-ol tested together with 0.2 g r-1-octen-3-ol, r-1-octen-3-ol alone at 2 g
Text: as §1
This test was conducted over a twelve-day period. The test was conducted to determine if 1,5-octadien-3-ol increases the trap catch of mosquitoes when added to a trap already containing the known attractant r-1-octen-3-ol. Traps A in area 1 and B in area 2, as described in Example 1, were employed. Both traps A and B were tested with (1) 0.2 g 100% r-1-octen-3-ol+0.04 g r-1,5Z-octadien-3-ol. in 2 ml diethyl phthalate, and (2) with 2 g 100% r-1-octen-3-ol in 2 ml diethyl phthalate (i.e., with no 1,5Z-octadien-3-ol present). Over the twelve day test period the traps with the 1,5z-octadien-3-ol present caught 239 mosquitoes and the traps without the 1,5Z-octadien-3-ol present caught 221 mosquitoes. Thus, the presence of the 1,5Z-octadien-3-ol increased the catch of mosquitoes by 8%.

C=CC(O)CC=CCC (stereo not drawn) [1,5-octadien-3-ol]
ability to attract mosquitoes (Culex quinquefasciatus): confirmed

C=CC(O)C/C=C\CC (stereo not drawn) [1,5Z-octadien-3-ol]
mosquitoes caught (mosquitoes [1]; Trap A (area 1), compound in trap plus 150 ml/minute CO2, four day test period, Trap B with CO2 only caught 35): 84 mosquitoes | catch ratio Trap A to Trap B (mosquitoes [1]; Trap A with compound plus CO2 vs Trap B with CO2 only, four days, baseline catch ratio 1.4 with CO2 only in both traps): 2.4

C=C[C@H](O)C/C=C\CC [r-1,5Z-octadien-3-ol]
mosquitoes caught (mosquitoes [2]): 239 mosquitoes | increase of the catch of mosquitoes (mosquitoes [2]; r-1-octen-3-ol plus r-1,5Z-octadien-3-ol vs r-1-octen-3-ol alone, twelve days): 8%

C=C[C@H](O)CCCCC [r-1-octen-3-ol, reference compound]
mosquitoes caught (mosquitoes [2]): 221 mosquitoes
